Like-named read-outs stand apart in the source and are kept apart here.
Experiments:
[1] = cited from earlier work
[2] = Acute toxicity in mice, single oral dose; format: in vivo, male Swiss-Webster mice; settings: for Average body weight of test animals, Day 0 / Average body weight of test animals, Day 1 / Average body weight of test animals, Day 3 / Average body weight of test animals, Day 7 / Average body weight of test animals, Day 14: 1 g/kg oral intubation; for Average body weight of test animals, Day 0: day 0 (prior to administration); for t (body weight, test vs control), Day 0 / t (body weight, test vs control), Day 1 / t (body weight, test vs control), Day 3 / t (body weight, test vs control), Day 7 / t (body weight, test vs control), Day 14: 1 g/kg oral, 0.95 confidence
Procedure: The sweet isolates, abrusosides A-D, are each tested for acute toxicity in mice. Experiments are carried out with male Swiss-Webster mice (6-8 weeks old), that are housed in temperature-controlled rooms with a 12-hr light/dark cycle, and allowed free access to water and food. After acclimatization for three days, groups of 10 animals receive a single 1 g/kg body weight dose of either abrusoside A, B, C, or D by oral intubation. Test materials are suspended in 1% aqueous sodium carboxymethylcellulose. A control group treated with only 1% sodium caroboxymethylcellulose is also included in the experiment. In all experiments, no incidence of mortality occurred for up to 14 days after dosing. Animals are examined for body weight variations on days 0 (prior to administration), 1, 3, 7, and 14. Body weight variations between treated and control groups are analyzed by one-way analysis of variance using an appropriate computer program. It may be seen from these tables that no significant differences in body weight variation occurred between each of the four test compounds and the controls, when assessed for a fourteen day period following compound administration.

[3] = tested on: Salmonella typhimurium strain TM677; format: cell-based; settings: DMSO
Procedure: Salmonella typhimurium strain TM677, carrying the "R-factor" plasmid pKM101, is used for the assessment of mutagenic activity. Mutagenic assays are conducted on abrusosides A, B, C, and D, both in the absence and presence of a metabolic activating agent, obtained from a 9,000 × g supernatant fraction from the livers of […] rats. The following protocols are used in this procedure.
Male Sprague-Dawley rats (body weight 100-120 g) were housed in air-conditioned quarters, with a 12 hr/12 hr light-dark cycle, and are given food and water ad libitum. The rats (groups of 10) are given single intraperitoneal injections of Aroclor 1254 (400 mg/kg) in corn oil. Four days after the treatment with Aroclor 1254, the rats are sacrificed by decapitation. Their livers are immediately excised, rinsed several times with cold 0.14 M NaCl, minced, and homogenized with 3 volumes (v/w) of 50 mM Tris HCl, pH 5, containing 0.14 M KCl, using a glass homogenizing vessel and a motor-driven Teflon pestle. The homogenate is filtered through cheese-cloth, and centrifuged at 9,000 g for 20 minutes to yield an S-9 fraction. The isolation procedures described above are conducted at 0°-4° C., and the isolated S-9 fraction is stored in small aliquots in liquid nitrogen.
Duplicate 0.98-ml reaction mixtures containing 0.1 mg of NADP^+, 1.0 mg of glucose-6-phosphate, 0.8 units of glucose-6-phosphate dehydrogenase, 0.67 mg of MgCl2, the S-9 fraction, and approximately 7×10^6 bacteria in logarithmic phase, are prepared in minimal essential medium. When metabolic activation is not required, only bacteria and minimal essential medium are mixed.
After addition of each test substance dissolved in 20 ul of DMSO, the mixtures are slowly rotated at 37° C. for 2 hours. Each reaction mixture is then quenched by addition of 4 ml phosphate-buffered saline. The bacteria are recovered by centrifugation, resuspended, diluted as appropriate, and plated, in triplicate, in the presence or absence of 8-azaguanine. Plates are scored […] on plates containing 8-azaguanine divided by the average number of plates not containing azaguanine, after correcting for dilution factors. The latter value is used to define the percentage of bacteria surviving the treatment, relative to a control in which only an equivalent amount of solvent had been added.
The spontaneous mutant fraction for this assay is 7.4±5×10^-5 (n=145). A compound is said to cause significant mutation if the induced mutant fraction is greater than or equal to two times the spontaneous mutant fraction.

[4] = Sensory evaluation by human taste panel; settings: for Sweetness relative to a 2% aqueous solution of sucrose: ammonium salts, in water, human taste panel; for Sweetness relative to 2% sucrose: three-person panel, dilute ammonium hydroxide solution diluted with water
Procedure: Abrusoside A (4 mg) is dissolved in 0.033N ammonium hydroxide solution (0.2 ml), to which is added 1.8 ml of water to yield the equivalent of a 0.2 % w/v solution of abrusoside A. Aliquots (0.2 ml) of this solution are diluted with 0.4, 0.8, 1.3, and 1.8 ml water, respectively. The diluted solutions is tasted sequentially, in order to judge the intensity of sweetness equivalent to that of a 2% w/v aqueous sucrose solution. Similar procedures are used in the sensory evaluation of […], expect that the concentrations of the ammonium hydroxide solutions used are 0.05N for abrusosides B and C, and 0.025N for abrusoside D. These sensory experiments are performed by a small panel consisting of three persons.

[5] = 2.5 mg/ml, activating system none
[6] = 5.0 mg/ml, activating system none

Row | Molecule | Average body weight of test animals, Day 0 [2] [g] | Average body weight of test animals, Day 1 [2] [g] | Average body weight of test animals, Day 3 [2] [g] | Average body weight of test animals, Day 7 [2] [g] | Average body weight of test animals, Day 14 [2] [g] | t (body weight, test vs control), Day 0 [2] | t (body weight, test vs control), Day 1 [2] | t (body weight, test vs control), Day 3 [2] | t (body weight, test vs control), Day 7 [2] | t (body weight, test vs control), Day 14 [2] | % Survival ([3]; 2.5 mg/ml, Aroclor S-9) [%] | Mutant Fraction ([3]; 2.5 mg/ml, Aroclor S-9) | % Survival [3, 5] [%] | Mutant Fraction [3, 5] | % Survival ([3]; 5.0 mg/ml, Aroclor S-9) [%] | Mutant Fraction ([3]; 5.0 mg/ml, Aroclor S-9) | % Survival [3, 6] [%] | Mutant Fraction [3, 6] | Sweetness relative to a 2% aqueous solution of sucrose [4] [x] | Sweetness relative to 2% sucrose [4] [times] | further results
1 | CC1(C)[C@@H](O[C@H]2O[C@H](C(=O)O)[C@@H](O)[C@H](O)[C@H]2O[C@@H]2O[C@H](C(=O)O)[C@@H](O)[C@H](O)[C@H]2O)CC[C@]2(C)[C@H]3C(=O)C=C4[C@@H]5C[C@@](C)(C(=O)O)CC[C@]5(C)CC[C@@]4(C)[C@]3(C)CC[C@@H]12 [Glycyrrhizin] | – | – | – | – | – | – | – | – | – | – | – | – | – | – | – | – | – | – | – | – | Retention of sodium, chlorine and water ([1]; humans): can cause abnormal retention of sodium, chlorine and water in humans; Adrenocorticomimetic activity ([1]; mimics the effects of the adrenal cortex): known adrenocorticomimetic activity
2 | Abrusoside D | 24.1 | 24.4 | 24.9 | 25.7 | 27.0 | 1.199 | 1.140 | 0.991 | 0.383 | 0.812 | 100 | 11.8 × 10^5 | 100 | 16.7 × 10^5 | 100 | 11.0 × 10^5 | 100 | 15.3 × 10^5 | 75 | 75 | Duration of lingering sweetness ([4]; 0.04% w/v): about 30 minutes
3 | CC1=CC[C@@H]([C@@H](C)[C@H]2CC[C@@]3(C)[C@@H]4CC[C@H]5[C@](C)(C(=O)O)[C@@H](O[C@@H]6O[C@H](CO)[C@@H](O)[C@H](O)[C@H]6O[C@@H]6O[C@H](CO)[C@@H](O)[C@H](O)[C@H]6O)CC[C@@]56C[C@@]46CC[C@]23C)OC1=O [Abrusoside C] | 23.4 | 23.8 | 24.3 | 25.3 | 26.9 | 0.282 | 0.371 | 0.302 | 0.129 | 0.930 | 100 | 7.7 × 10^5 | 100 | 8.1 × 10^5 | 100 | 6.7 × 10^5 | 100 | 7.6 × 10^5 | 50 | 50 | –
4 | CC1=CC[C@@H]([C@@H](C)[C@H]2CC[C@@]3(C)[C@@H]4CC[C@H]5[C@](C)(C(=O)O)[C@@H](O[C@@H]6O[C@H](CO)[C@@H](O)[C@H](O)[C@H]6O)CC[C@@]56C[C@@]46CC[C@]23C)OC1=O [Abrusoside A] | 23.4 | 23.7 | 24.4 | 25.4 | 26.1 | 0.292 | 0.153 | 0.368 | 0.000 | 0.000 | 100 | 8.1 × 10^5 | 100 | 7.9 × 10^5 | 100 | 7.3 × 10^5 | 100 | 8.1 × 10^5 | 30 | 30 | –
5 | COC(=O)[C@H]1O[C@@H](O[C@H]2[C@H](O[C@H]3CC[C@]45C[C@]46CC[C@]4(C)[C@@H]([C@H](C)[C@@H]7CC=C(C)C(=O)O7)CC[C@@]4(C)[C@@H]6CC[C@H]5[C@]3(C)C(=O)O)O[C@H](CO)[C@@H](O)[C@@H]2O)[C@H](O)[C@@H](O)[C@@H]1O [Abrusoside B] | 23.5 | 23.7 | 23.9 | 25.0 | 26.4 | 0.432 | 0.330 | 0.458 | 0.576 | 0.282 | 100 | 7.2 × 10^5 | 100 | 8.7 × 10^5 | 100 | 8.2 × 10^5 | 100 | 7.3 × 10^5 | 100 | 100 | –
